Data reported in ChEMBL document CHEMBL1143160, “Novel 3-alkoxy-1H-pyrazolo[3,4-d]pyrimidines as EGFR and erbB2 receptor tyrosine kinase inhibitors” (Bioorg Med Chem Lett, 2008).

Tests used:
[1] = target: T1, Receptor tyrosine-protein kinase erbB-2 (Homo sapiens, UniProt P04626); assay: Inhibition of erbB2
[2] = target: Epidermal growth factor receptor (Homo sapiens, UniProt P00533)
[3] = target: T1, Receptor tyrosine-protein kinase erbB-2; assay: Inhibition of erB2 autophosphorylation in clone 24 cells; assay type: cell-based
[4] = Antiproliferative activity against human BT474C cells; assay type: functional, cell-based
[5] = Oral bioavailability in male and female Beagle dog at 0.4 mg/kg; assay type: ADME, organism-based, Canis lupus familiaris; settings: both, in vivo
[6] = test system: KB; assay: Antiproliferative activity against EGF-induced human KB cells; assay type: functional, cell-based
[7] = Volume of distribution at steady state in male and female Beagle dog at 0.2 mg/kg, iv and 0.4 mg/kg, po; assay type: ADME, organism-based, Canis lupus familiaris; settings: both, in vivo, read-out: Vdss
[8] = Clearance in male and female Beagle dog at 0.2 mg/kg, iv and 0.4 mg/kg, po; assay type: ADME, organism-based, Canis lupus familiaris; settings: both, in vivo
[9] = Protein binding in Beagle dog plasma assessed as unbound ligand at 0.2 mg/kg, iv and 0.4 mg/kg, po; assay type: ADME, organism-based, Canis lupus familiaris; settings: read-out: PPB
[10] = Half life in male and female Beagle dog at 0.2 mg/kg, iv and 0.4 mg/kg, po; assay type: ADME, organism-based, Canis lupus familiaris; settings: both, in vivo
[11] = Oral bioavailability in rat at 1 mg/kg; assay type: ADME, organism-based; settings: in vivo
[12] = Half life in rat at 0.4 mg/kg, iv and 1 mg/kg, po; assay type: ADME, organism-based; settings: in vivo
[13] = Protein binding in rat plasma assessed as unbound ligand at 0.4 mg/kg, iv and 1 mg/kg, po; assay type: ADME, organism-based
[14] = Clearance in rat at 0.4 mg/kg, iv and 1 mg/kg, po; assay type: ADME, organism-based; settings: in vivo
[15] = Volume of distribution at steady state in rat at 0.4 mg/kg, iv and 1 mg/kg, po; assay type: ADME, organism-based; settings: in vivo, read-out: Vdss
[16] = test system: P-gp; assay: Apparent permeability from apical to basolateral side of the dog MDCK cells expressing P-gp transporter; assay type: ADME, cell-based, Canis lupus familiaris; settings: MDCK-MDR1

T1 sequence (P04626 whole entry): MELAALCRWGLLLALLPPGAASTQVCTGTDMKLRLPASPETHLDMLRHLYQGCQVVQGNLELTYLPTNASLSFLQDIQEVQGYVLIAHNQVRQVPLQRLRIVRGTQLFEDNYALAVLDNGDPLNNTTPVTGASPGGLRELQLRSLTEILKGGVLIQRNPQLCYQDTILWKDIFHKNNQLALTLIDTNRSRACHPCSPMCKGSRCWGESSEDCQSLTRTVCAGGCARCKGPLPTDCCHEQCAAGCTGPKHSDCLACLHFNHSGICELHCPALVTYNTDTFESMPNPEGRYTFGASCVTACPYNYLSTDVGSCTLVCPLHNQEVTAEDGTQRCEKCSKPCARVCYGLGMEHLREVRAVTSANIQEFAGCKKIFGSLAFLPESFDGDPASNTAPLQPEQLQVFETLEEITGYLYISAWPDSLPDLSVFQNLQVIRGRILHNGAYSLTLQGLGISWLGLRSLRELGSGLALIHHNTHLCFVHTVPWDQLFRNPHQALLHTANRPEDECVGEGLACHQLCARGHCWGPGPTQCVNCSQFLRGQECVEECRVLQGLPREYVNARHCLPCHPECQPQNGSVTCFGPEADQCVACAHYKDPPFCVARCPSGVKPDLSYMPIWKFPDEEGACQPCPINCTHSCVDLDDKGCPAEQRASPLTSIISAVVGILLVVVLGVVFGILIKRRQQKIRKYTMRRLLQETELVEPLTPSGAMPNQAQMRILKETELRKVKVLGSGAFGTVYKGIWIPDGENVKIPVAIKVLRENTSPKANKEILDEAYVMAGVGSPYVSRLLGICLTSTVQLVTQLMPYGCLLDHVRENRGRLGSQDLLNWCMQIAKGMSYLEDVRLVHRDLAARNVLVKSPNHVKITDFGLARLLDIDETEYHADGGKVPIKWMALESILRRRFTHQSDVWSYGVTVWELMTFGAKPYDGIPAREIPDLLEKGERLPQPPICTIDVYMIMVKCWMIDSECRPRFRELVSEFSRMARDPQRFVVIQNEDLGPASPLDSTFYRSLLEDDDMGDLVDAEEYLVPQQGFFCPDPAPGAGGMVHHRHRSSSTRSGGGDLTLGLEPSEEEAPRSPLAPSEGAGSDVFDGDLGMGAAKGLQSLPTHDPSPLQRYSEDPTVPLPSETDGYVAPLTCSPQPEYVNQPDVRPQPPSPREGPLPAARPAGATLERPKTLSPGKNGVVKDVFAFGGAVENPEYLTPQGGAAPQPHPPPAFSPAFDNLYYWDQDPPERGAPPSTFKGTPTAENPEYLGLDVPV
Epidermal growth factor receptor, sequence (P00533 whole entry): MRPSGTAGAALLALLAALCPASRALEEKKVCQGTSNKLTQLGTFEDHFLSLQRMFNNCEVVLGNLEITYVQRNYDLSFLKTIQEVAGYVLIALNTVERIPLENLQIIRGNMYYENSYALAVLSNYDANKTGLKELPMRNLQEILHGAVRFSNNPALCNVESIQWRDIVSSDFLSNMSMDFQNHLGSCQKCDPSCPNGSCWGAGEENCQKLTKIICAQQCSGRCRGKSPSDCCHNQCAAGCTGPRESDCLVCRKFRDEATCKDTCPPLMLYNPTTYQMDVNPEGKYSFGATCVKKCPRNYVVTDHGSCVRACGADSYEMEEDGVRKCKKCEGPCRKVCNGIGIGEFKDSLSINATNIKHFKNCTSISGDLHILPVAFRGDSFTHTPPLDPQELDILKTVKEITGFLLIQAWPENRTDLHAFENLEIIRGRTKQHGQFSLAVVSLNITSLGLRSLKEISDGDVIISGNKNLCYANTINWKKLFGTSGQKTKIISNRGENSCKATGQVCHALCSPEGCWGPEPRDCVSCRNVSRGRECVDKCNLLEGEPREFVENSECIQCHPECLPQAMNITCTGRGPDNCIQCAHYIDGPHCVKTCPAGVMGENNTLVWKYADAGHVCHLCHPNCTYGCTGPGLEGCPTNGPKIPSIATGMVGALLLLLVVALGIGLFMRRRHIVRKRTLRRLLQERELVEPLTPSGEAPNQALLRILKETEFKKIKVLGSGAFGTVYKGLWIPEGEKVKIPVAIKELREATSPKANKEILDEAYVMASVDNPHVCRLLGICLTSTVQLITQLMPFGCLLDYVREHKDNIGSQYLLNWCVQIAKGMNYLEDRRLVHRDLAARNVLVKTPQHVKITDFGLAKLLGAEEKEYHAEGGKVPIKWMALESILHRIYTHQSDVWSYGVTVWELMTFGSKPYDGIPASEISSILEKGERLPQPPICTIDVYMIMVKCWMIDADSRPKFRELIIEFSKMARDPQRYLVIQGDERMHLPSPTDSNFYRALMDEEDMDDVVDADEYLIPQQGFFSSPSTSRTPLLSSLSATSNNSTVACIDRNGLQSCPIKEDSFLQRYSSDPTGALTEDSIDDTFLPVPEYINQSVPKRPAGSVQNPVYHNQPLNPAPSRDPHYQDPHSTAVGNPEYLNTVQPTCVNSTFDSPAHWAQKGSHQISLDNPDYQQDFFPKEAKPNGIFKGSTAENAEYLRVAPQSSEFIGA

Structure (SMILES)	IC50 [1]	IC50 [2]	IC50 [3]	also measured
OCCOc1n[nH]c2ncnc(Nc3ccc(OCc4ccccn4)c(Cl)c3)c12	0.004 µM	0.016 µM	–	–
Clc1cc(Nc2ncnc3n[nH]c(OCCN4CCCCCO4)c23)ccc1OCc1ccccn1	< 0.001 µM	< 0.001 µM	0.148 µM	–
CN1CCN(CCCOc2n[nH]c3ncnc(Nc4ccc(OCc5ccccn5)c(Cl)c4)c23)CC1	0.004 µM	0.014 µM	–	–
CNCCOc1n[nH]c2ncnc(Nc3ccc(OCc4ccccn4)c(Cl)c3)c12	0.003 µM	0.017 µM	1 µM	–
CN1CCC(Oc2cccc3ncnc(Nc4ccc(OCc5ccccn5)c(Cl)c4)c23)CC1	–	–	–	IC50 [4]: 0.041 µM
CN1CCN(CCOc2n[nH]c3ncnc(Nc4ccc(OCc5ccccn5)c(Cl)c4)c23)CC1	0.001 µM	0.005 µM	0.166 µM	bioavailability [5]: 30%; IC50 [6]: 0.22 µM; Vd [7]: 9 L/kg; clearance [8]: 2.76 L/h/kg; fraction unbound [9]: 0.21; half-life [10]: 2.4 h; bioavailability [11]: 23%; half-life [12]: 1.4 h; fraction unbound [13]: 0.1; IC50 [4]: 0.017 µM; clearance [14]: 2.46 L/h/kg; Vd [15]: 4.5 L/kg; Papp A→B [16]: 95 nm/s
OC1CCN(CCCOc2n[nH]c3ncnc(Nc4ccc(OCc5ccccn5)c(Cl)c4)c23)CC1	0.006 µM	–	–	–
Cc1cc(Nc2ncnc3[nH]nc(OCCN4CCC(O)CC4)c23)ccc1OCc1ccccn1	0.005 µM	0.018 µM	0.695 µM	–
Cc1ccc(Oc2ccc(Nc3ncnc4[nH]nc(OCCN5CCC(O)CC5)c34)cc2Cl)cn1	< 0.001 µM	0.007 µM	0.184 µM	–
CC(=O)N1CCN(CCOc2n[nH]c3ncnc(Nc4ccc(OCc5ccccn5)c(Cl)c4)c23)CC1	< 0.001 µM	0.003 µM	0.129 µM	–
COc1cc(Nc2ncnc3[nH]nc(OCCN4CCC(O)CC4)c23)ccc1OCc1ccccn1	0.017 µM	–	1.48 µM	–
Clc1cc(Nc2ncnc3[nH]nc(OCCN4CCOCC4)c23)ccc1OCc1ccccn1	< 0.001 µM	0.001 µM	–	–
COc1cc(Nc2ncnc3[nH]nc(OCCN4CCC(O)CC4)c23)ccc1OCc1cccc(F)c1	0.003 µM	0.013 µM	0.613 µM	–
Cc1ccc(Oc2ccc(Nc3ncnc4[nH]nc(OCCN5CCC(O)CC5)c34)cc2F)cn1	0.005 µM	1.43 µM	–	–
OC1CCN(CCOc2n[nH]c3ncnc(Nc4ccc(OCc5ccccn5)c(Cl)c4)c23)CC1	0.005 µM	0.013 µM	0.135 µM	–
COC1CCN(CCOc2n[nH]c3ncnc(Nc4ccc(OCc5ccccn5)c(Cl)c4)c23)CC1	0.004 µM	0.028 µM	0.082 µM	–
Cc1cc(Nc2ncnc3[nH]nc(OCCN4CCC(O)CC4)c23)ccc1OCc1cccc(F)c1	< 0.001 µM	< 0.001 µM	0.107 µM	–
Clc1cc(Nc2ncnc3[nH]nc(OCCCN4CCOCC4)c23)ccc1OCc1ccccn1	< 0.001 µM	0.016 µM	0.44 µM	–
Clc1cc(Nc2ncnc3[nH]nc(OCCN4CCNCC4)c23)ccc1OCc1ccccn1	0.003 µM	0.008 µM	0.128 µM	–
OC1CCN(CCOc2n[nH]c3ncnc(Nc4ccc(OCc5cccc(F)c5)c(Cl)c4)c23)CC1	< 0.001 µM	< 0.001 µM	0.019 µM	–
Cc1ccc(Oc2ccc(Nc3ncnc4[nH]nc(OCCN5CCC(O)CC5)c34)cc2C)cn1	0.011 µM	–	0.415 µM	–
